Legend:
[1] = Cell viability assay (EZ-Cytox), cytotoxicity; type: cell-based; details: human, HepAD38 cells; for viability at 65 h, 100 µM: read-out: Cytotoxicity % Livability (@100 μM)
Protocol: HepAD38 cells were cultured for 2 days in Dulbecco's Modified Eagle's medium (Welgene, LM001-05) supplemented with 10% FBS without tetracycline. […] After 65 hours of treatment, viability was measured using EZ-Cytox cell viability assay kit (Daeil Lab Service) according to the manufacturer's instructions. The absorbance was measured at 450 nm using a spectrophotometer (Spark, Tecan).

intracellular HBV DNA = test: Real-time PCR for intracellular HBV DNA in HepAD38 cells; type: cell-based; details: Hepatitis B virus, HePAD38, 65 h, 65 hours treatment
Protein = Protein (Hepatitis B virus genotype D subtype ayw, UniProt P03146); test: Protein inhibition rate / EC50 (Table 1, no method described); type: biochemical; details: for inhibition at 3 µM: @3 μM (footnote *)
Protein, sequence (P03146 whole entry): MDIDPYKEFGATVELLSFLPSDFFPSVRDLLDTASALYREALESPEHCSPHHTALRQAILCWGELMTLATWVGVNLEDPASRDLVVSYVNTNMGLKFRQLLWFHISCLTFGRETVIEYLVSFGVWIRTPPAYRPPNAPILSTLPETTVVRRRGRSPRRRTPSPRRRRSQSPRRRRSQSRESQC

Row | SMILES | CC50 at 65 h [1] [µM] | viability at 65 h, 100 µM [1] [%] | IC50 (intracellular HBV DNA) [µM] | EC50 (Protein) [µM] | inhibition at 30 µM (Protein) [%] | inhibition at 3 µM (Protein) [%]
1 | O=C(Nc1ccc(F)c(Cl)c1)N(Cc1n[nH]c2c1CCCC2)c1ccon1 [Example 132, 3-(3-chloro-4-fluorophenyl)-1-(isoxazol-3-yl)-1-((4,5,6,7-tetrahydro-1H-indazol-3-yl)methyl)urea] | > 100 | 81.9 | 0.055 | 5.3 | 86.9 | –
2 | COc1ccc(N(Cc2nn(C)c3c2CCCC3)C(=O)Nc2ccc(F)c(Cl)c2)cc1 [Example 36, 3-(3-chloro-4-fluorophenyl)-1-(4-methoxyphenyl)-1-((1-methyl-4,5,6,7-tetrahydro-1H-indazol-3-yl)methyl)urea] | > 100 | 100 | 0.036 | 9.2 | 91.6 | –
3 | O=C(O)c1ccc(N(Cc2n[nH]c3c2CCCC3)C(=O)Nc2ccc(F)c(Cl)c2)cc1 [Example 131, 4-(3-(3-chloro-4-fluorophenyl)-1-((4,5,6,7-tetrahydro-1H-indazol-3-yl)methyl)ureido)benzoic acid] | > 100 | 100 | > 1.1 | 3.8 | 94.7 | –
4 | COc1ccc(N(Cc2n[nH]c3c2C2CCC3C2)C(=O)Nc2ccc(F)c(Cl)c2)cn1 (stereo not shown) [Example 51, 3-(3-chloro-4-fluorophenyl)-1-(6-methoxypyridin-3-yl)-1-((4,5,6,7-tetrahydro-1H-4,7-methanoindazol-3-yl)methyl)urea] | > 50 | 36.7 | 0.035 | 3.4 | 87.1 | –
5 | COc1ccc(N(Cc2n[nH]c3c2COCC3)C(=O)Nc2ccc(F)c(Cl)c2)cc1 [Example 38, 3-(3-chloro-4-fluorophenyl)-1-(4-methoxyphenyl)-1-((1,4,6,7-tetrahydropyrano[4,3-c]pyrazol-3-yl)methyl)urea] | > 100 | 104 | 0.018 | 1.6 | 80 | –
6 | COc1ccc(N(Cc2n[nH]c3c2CC(O)CC3)C(=O)Nc2ccc(F)c(Cl)c2)cn1 (stereo not shown) [Example 48, 3-(3-chloro-4-fluorophenyl)-1-((5-hydroxy-4,5,6,7-tetrahydro-1H-indazol-3-yl)methyl)-1-(6-methoxypyridin-3-yl)urea] | > 100 | – | 1.1 | 6.4 | 90 | –
7 | COc1ccc(N(Cc2n[nH]c3c2CN(C)CC3)C(=O)Nc2ccc(F)c(Cl)c2)cc1 [Example 37, 3-(3-chloro-4-fluorophenyl)-1-(4-methoxyphenyl)-1-((5-methyl-4,5,6,7-tetrahydro-1H-pyrazolo[4,3-c]pyridin-3-yl)methyl)urea] | – | 22.4 | > 1.1 | – | 28.3 | –
8 | COc1ccc(N(Cc2n[nH]c3c2CCCO3)C(=O)Nc2ccc(F)c(Cl)c2)cn1 [Example 63, 3-(3-chloro-4-fluorophenyl)-1-(6-methoxypyridin-3-yl)-1-((1,4,5,6-tetrahydropyrano[2,3-c]pyrazol-3-yl)methyl)urea] | > 100 | 94.5 | 0.014 | 2.6 | 90.5 | –
9 | COc1ccc(N(Cc2n[nH]c3c2CCC3)C(=O)Nc2ccc(F)c(Cl)c2)cc1 [Example 46, 3-(3-chloro-4-fluorophenyl)-1-(4-methoxyphenyl)-1-((1,4,5,6-tetrahydrocyclopenta[c]pyrazol-3-yl)methyl)urea] | > 100 | 100 | 0.0094 | 4.3 | 92.8 | –
10 | Cn1cc(N(Cc2n[nH]c3c2CCC3)C(=O)Nc2ccc(F)c(Cl)c2)ccc1=O [Example 65, 3-(3-chloro-4-fluorophenyl)-1-(1-methyl-6-oxo-1,6-dihydropyridin-3-yl)-1-((1,4,5,6-tetrahydrocyclopenta[c]pyrazol-3-yl)methyl)urea] | > 100 | 112 | > 1.1 | > 30 | 53.5 | –
11 | COc1ccc(N(Cc2n[nH]c3c2CC(C)(C)CC3)C(=O)Nc2ccc(F)c(Cl)c2)cn1 [Example 47, 3-(3-chloro-4-fluorophenyl)-1-((5,5-dimethyl-4,5,6,7-tetrahydro-1H-indazol-3-yl)methyl)-1-(6-methoxypyridin-3-yl)urea] | > 100 | 50.7 | 0.99 | 9.6 | 95.3 | –
12 | O=C(Nc1ccc(F)c(Cl)c1)N(Cc1n[nH]c2c1CCCC2)c1cc[nH]c(=O)c1 [Example 15, 3-(3-chloro-4-fluorophenyl)-1-(2-oxo-1,2-dihydropyridin-4-yl)-1-((4,5,6,7-tetrahydro-1H-indazol-3-yl)methyl)urea] | > 100 | 84 | 0.31 | 1.4 | 64.7 | –
13 | O=C(Nc1ccc(F)c(Cl)c1)N(Cc1n[nH]c2c1CCCC2)c1ccc(=O)[nH]c1 [Example 14, 3-(3-chloro-4-fluorophenyl)-1-(6-oxo-1,6-dihydropyridin-3-yl)-1-((4,5,6,7-tetrahydro-1H-indazol-3-yl)methyl)urea] | > 100 | 95.4 | 0.11 | 7.3 | 14 | –
14 | COc1ccc(N(Cc2n[nH]c3c2CCCC3)C(=O)Nc2ccc(F)c(Cl)c2)cn1 [Example 42, 3-(3-chloro-4-fluorophenyl)-1-(6-methoxypyridin-3-yl)-1-((4,5,6,7-tetrahydro-1H-indazol-3-yl)methyl)urea] | > 100 | 99.5 | 0.037 | 4.3 | – | 13
15 | COc1ccc(N(Cc2n[nH]c3c2CCCC3)C(=O)Nc2ccc(F)c(Cl)c2)cc1 [Example 32, 3-(3-chloro-4-fluorophenyl)-1-(4-methoxyphenyl)-1-((4,5,6,7-tetrahydro-1H-indazol-3-yl)methyl)urea] | 81.4 | 4.1 | 0.0099 | 9.4 | 5 | –
16 | COc1ccc(N(Cc2n[nH]c3c2CS(=O)(=O)CC3)C(=O)Nc2ccc(F)c(Cl)c2)cn1 [Example 49, 3-(3-chloro-4-fluorophenyl)-1-((5,5-dioxido-1,4,6,7-tetrahydrothiopyrano[4,3-c]pyrazol-3-yl)methyl)-1-(6-methoxypyridin-3-yl)urea] | > 100 | – | > 1.1 | – | 72 | –
17 | O=C(Nc1ccc(F)c(Cl)c1)N(Cc1n[nH]c2c1CCC2)c1ccc(O)cc1 [Example 114, 3-(3-chloro-4-fluorophenyl)-1-(4-hydroxyphenyl)-1-((1,4,5,6-tetrahydrocyclopenta[c]pyrazol-3-yl)methyl)urea] | 54.5 | 7.9 | 0.014 | 1.6 | 74.6 | –
18 | COc1ccc(N(Cc2ccn(C)n2)C(=O)Nc2ccc(F)c(Cl)c2)cc1 [Example 35, 3-(3-chloro-4-fluorophenyl)-1-(4-methoxyphenyl)-1-((1-methyl-1H-pyrazol-3-yl)methyl)urea] | – | 90.5 | > 1.1 | – | 33.7 | –
19 | COc1ccc(N(Cc2n[nH]c3c2CN(C(C)=O)CC3)C(=O)Nc2ccc(F)c(Cl)c2)cc1 [Example 33, 1-((5-acetyl-4,5,6,7-tetrahydro-1H-pyrazolo[4,3-c]pyridin-3-yl)methyl)-3-(3-chloro-4-fluorophenyl)-1-(4-methoxyphenyl)urea] | – | 96 | > 1.1 | – | 77.8 | –
20 | COc1ccc(N(Cc2n[nH]c3c2CC(C(=O)O)CC3)C(=O)Nc2ccc(F)c(Cl)c2)cn1 (stereo not shown) [Example 52, 3-((3-(3-chloro-4-fluorophenyl)-1-(6-methoxypyridin-3-yl)ureido)methyl)-4,5,6,7-tetrahydro-1H-indazole-5-carboxylic acid] | > 100 | 100 | > 1.1 | – | 4 | –
21 | COc1ccc(N(Cc2n[nH]c3c2CCC3C)C(=O)Nc2ccc(F)c(Cl)c2)cn1 (stereo not shown) [Example 59, 3-(3-chloro-4-fluorophenyl)-1-(6-methoxypyridin-3-yl)-1-((6-methyl-1,4,5,6-tetrahydrocyclopenta[c]pyrazol-3-yl)methyl)urea] | > 100 | 91.2 | 0.013 | 4 | 94.9 | –
22 | COc1ccc(N(Cc2n[nH]c3c2CC(CO)CC3)C(=O)Nc2ccc(F)c(Cl)c2)cn1 (stereo not shown) [Example 44, 3-(3-chloro-4-fluorophenyl)-1-((5-(hydroxymethyl)-4,5,6,7-tetrahydro-1H-indazol-3-yl)methyl)-1-(6-methoxypyridin-3-yl)urea] | > 100 | 100 | > 1.1 | – | 58 | –
23 | COc1ccc(N(Cc2n[nH]c3c2CCC3)C(=O)Nc2ccc(F)c(Cl)c2)cn1 [Example 41, 3-(3-chloro-4-fluorophenyl)-1-(6-methoxypyridin-3-yl)-1-((1,4,5,6-tetrahydrocyclopenta[c]pyrazol-3-yl)methyl)urea] | > 100 | 97.8 | 0.018 | 2.6 | – | 59
24 | COc1ccc(N(Cc2n[nH]c3c2CC(C(F)(F)F)CC3)C(=O)Nc2ccc(F)c(Cl)c2)cn1 (stereo not shown) [Example 62, 3-(3-chloro-4-fluorophenyl)-1-(6-methoxypyridin-3-yl)-1-((5-(trifluoromethyl)-4,5,6,7-tetrahydro-1H-indazol-3-yl)methyl)urea] | 86.7 | 6.5 | 0.2 | 6.9 | 100 | –
